Laboratory results as given in article PMC7675038, “A Single‐Stranded DNA‐Encoded Chemical Library Based on a Stereoisomeric Scaffold Enables Ligand Discovery by Modular Assembly of Building Blocks” (Advanced Science, 2020).

Molecular target: T1, HSA, human serum albumin (Homo sapiens, UniProt P02768)
T1 construct: gene ALB
Experiment: fluorescence polarization, off-DNA
Type: binding

T1 sequence (P02768 25-609): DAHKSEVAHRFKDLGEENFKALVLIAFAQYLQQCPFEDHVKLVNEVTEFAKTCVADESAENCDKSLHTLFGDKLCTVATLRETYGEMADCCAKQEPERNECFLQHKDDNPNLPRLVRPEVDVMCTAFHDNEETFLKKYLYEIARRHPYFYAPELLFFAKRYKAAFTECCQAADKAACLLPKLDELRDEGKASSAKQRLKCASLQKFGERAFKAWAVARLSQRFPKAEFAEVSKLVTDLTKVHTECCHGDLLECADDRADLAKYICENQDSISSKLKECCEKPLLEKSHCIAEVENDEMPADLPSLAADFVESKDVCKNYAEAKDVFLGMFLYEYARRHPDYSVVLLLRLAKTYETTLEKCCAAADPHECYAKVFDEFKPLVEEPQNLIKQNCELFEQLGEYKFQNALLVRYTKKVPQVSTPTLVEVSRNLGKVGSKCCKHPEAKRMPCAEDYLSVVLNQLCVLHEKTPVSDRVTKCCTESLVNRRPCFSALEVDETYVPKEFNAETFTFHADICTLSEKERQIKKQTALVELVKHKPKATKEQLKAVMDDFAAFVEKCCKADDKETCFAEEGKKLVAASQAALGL

| Kd [µM] | Compound |
| --- | --- |
| 5 ± 3 | Cc1ccc(C(=O)NCC(=O)N[C@@H](CCC(=O)N[C@@H](CCC(N)=O)C(=O)O)C(=O)N2CCc3nc(-c4ccccc4)ncc3C2)cc1 [compound 17, 17] |
| 11 ± 2 | Cc1ccc(C(=O)NCC(=O)N[C@H](CCC(=O)N[C@@H](CCC(N)=O)C(=O)O)C(=O)N2CCc3nc(-c4ccccc4)ncc3C2)cc1 [compound 16, 16] |
